Holding throughout (type): cell-based
Assay [1] concerns RKO colon carcinoma cells. As to the kind of experiment: MTS colorimetric cell growth assay, RKO. The settings on record: Homo sapiens, 120 h, read-out: RKO GI50. The text has this: (§1) The cell cultures were kept below 20 passages (∼10 weeks) and routinely monitored (upon thawing and monthly) for Mycoplasma infections with MycoAlert Mycoplasma Detection Kit (Lonza). All cell lines were authenticated by short tandem repeat profiling to confirm their identity (Eurofins). TNKS1/2 and PARP1 biochemical assays ([27, 32]), luciferase-based WNT/β-catenin signaling pathway reporter assay ([22, 27, 32]), anti-proliferative assays, and NCI-60 tumor cell line panel screen ([7]), immunoblot analyses ([7, 32, 39]), RNA isolation, and real-time qRT-PCR ([7, 27, 39, 40]) were performed as previously described.
(§2) B, IC50 values for inhibition of TNKS1, TNKS2, and PARP1 (biochemical assays) and luciferase-based WNT/β-catenin signaling reporter assay in HEK293 cells (WNT reporter). […] Mean ± SD values from a minimum of three independent experiments are shown. For B and C, numbers in superscript indicate data from reference 22, 27, 31, and 32. […] C, MTS colorimetric cell growth assay for various concentrations of tankyrase inhibitors in treated COLO 320DM and RKO colon cancer cells. […] Data from one representative experiment of more than three repeated assays, each with six replicates, are shown.

The test system of the next assay is WNT/β-catenin signaling. Put plainly: luciferase-based WNT/β-catenin signaling reporter assay in HEK293 cells. The settings on record: Homo sapiens, HEK293, read-out: WNT reporter IC50. The procedure:
as §1, with “The cell lines where obtained from ATCC or the Japanese Collection of Research Bioresources (JCRB) in 2014 and culturing was performed as described previously ([7]). The” for “The”
For orientation: A reporter such as luciferase makes a cellular process visible.

The test system of assay [2] is COLO 320DM colon carcinoma cells. Put plainly: MTS colorimetric cell growth assay, COLO 320DM. The settings on record: Homo sapiens, 120 h, read-out: COLO320DM GI50.
Text: as §1, §2

Some results are limits rather than exact numbers.

Usually GI50 stands for the concentration at which growth is held to half of that of the control. One may read the IC50 as the point on the concentration scale where inhibition reaches its midpoint.

Consider `Cc1cc(N2C[C@@H](C)N[C@@H](C)C2)ncc1-c1ccc(-c2nc3c(ccn3C)c(=O)[nH]2)cc1` [AZ6102], for which the concentration for 50% growth inhibition (GI50) in assay [1] was 6700 nM; in assay [2], 50 nM. Further, the IC50 in the assay with WNT/β-catenin signaling was 16 ± 4.5 nM.

For the compound `Oc1nc(-c2ccc(C(F)(F)F)cc2)nc2c1CSCC2` [XAV939], the values for the GI50 in assay [1] and in assay [2] were 9500 nM and over 10000 nM, respectively. Further, the IC50 with WNT/β-catenin signaling is 220 ± 21 nM.
